According to US20250032425A1, “FIRST IN CLASS USE OF ESTROGEN RECEPTOR BETA AGONISTS IN TREATING ANGELMAN SYNDROME AND RELEVANT AUTISM SPECTRUM DISORDERS” (BROWN UNIVERSITY, priority 2023, published 2025):
Entries after “also recorded” stand apart in the source; their conditions may differ.

What was measured:
[1] = system: iOPCs treated with siUBE3A; test: EdU nuclear incorporation in iOPCs treated with siUBE3A; assay type: cell-based, human; details: siUBE3A plus AC-186 at 10 μM for 24 hours
Description: The siRNAs targeting UBE3A (Thermo Fisher, #4390815 and #4390816), estrogen receptors (Thermo Scientific #145909 for ESRβ, #145539 for ESRα, and #4390824 for GPER), and negative control (Thermo Scientific, #AM4615) were obtained commercially. The 10-20 nM final concentration was used with Lipofectamine RNAiMAX transfection reagent (Thermo Scientific #13778075) and incubated for at least 48 hours before the treatments of therapeutic compounds or other reagents.
The EdU labeling kit from ThermoFisher Scientific (#C10637) was used to trace cell proliferation by incubating iOPCs with 2 μM EdU for three hours before fixation. Following EdU incorporation, cells were fixed in 4% paraformaldehyde, blocked with normal serum, and stained with primary antibodies, Rabbit anti-Ki67 and Mouse anti-UBE3A. These steps were conducted according to the manual of the labeling kit and also detailed immunofluorescence staining protocols described below, to ensure specific detection of the proliferation marker Ki67 and the ubiquitin-protein ligase UBE3A in the cells for subsequent imaging analysis.
For immunofluorescence with fixed cells in vitro, cultured cells were fixed in 4% PFA for 15 min at 37° C. followed by 0.25% TritonX-100 in PBS for 10 min at RT. Cells were blocked with 2% normal goat/donkey serum in PBS for 1 hour at RT. […]

[2] = system: AS iOPCs (UBE3A truncation mutation); test: Proliferation of AS patient-derived iOPCs (EdU, Ki67); assay type: cell-based, human; details: 10 μM, 24 hours, vs vehicle
Description: FIGS. 25A-25I depict the role of UBE3A via ESR-β signaling on OPC proliferation and oligodendrocyte differentiation. FIG. 25A: qPCR to evaluate the differentiation and maturation for myelination of iOPCs after persistent UBE3A knockdown, by measuring mRNA transcripts of UBE3A and myelination markers MBP and PLP1 in iOPCs treated with siNC or siUBE3A and differentiated in vitro. MBP and PLP1 mRNA expression decreased in iOLs treated with siUBE3A. n=3 independent experiments. FIG. 25B: In vitro myelination assays analyzed the effect of persistent UBE3A knockdown on iOPCs differentiation and maturation in nano-fiber-based cultures, with immunofluorescent staining of MBP (magenta) and DAPI (blue) and imaging of nano-fibers (grey). Quantification by the area (left graph) and density (right graph) of MBP fluorescent signals (normalized to siNC=1.0). MBP area and intensity decreased in cells treated with siUBE3A. n=3 experiments. Scale bar: 25 μm. […] Protein levels of ESR-β in UBE3A-deficient iOPCs and subsequently differentiated iOLs were quantified, normalized against the loading control GAPDH, and expressed relative to the iOPC+siNC control condition (set at 1.0). […] Levels of Ki67 and Myelin Associated Glycoprotein (MAG) were measured in UBE3A-deficient iOPCs and iOLs differentiated from them, normalized against GAPDH, and compared to the iOPC+siNC condition. n=4 experiments. […]

Structure (SMILES): Oc1ccc(C2(c3ccccc3F)CCC(F)(F)CC2)cc1 [AC-186]
- EdU staining [1]: increased EdU staining
- ratio of EdU positive iOPCs (proliferation) ([2]; AS iOPCs): significantly enhanced the proliferation; also recorded: increased
- Ki67 expression ([2]; AS-derived OPCs): increased Ki67 expression
